Experiments:
Format in all cases: cell-based
Conditions in all cases: 21-24 hrs, lowest concentration giving cytokine at least 2× negative control, tested 0.01-30 micromolar
[1] = tested on: IFN-gamma induction in human peripheral blood mononuclear cells (PBMC); test: Cytokine induction in human cells (PBMC): IFN-gamma by multiplex bead assay
Protocol: (§1) Cytokine Induction in Human Cells
(§2) Whole blood was obtained from healthy human donors and collected by venipuncture into vacutainer tubes or syringes containing EDTA. Human peripheral blood mononuclear cells (PBMC) were purified from the whole blood by density gradient centrifugation. Histopaque 1077 (15 mL, Sigma, St. Louis, Mo.) was transferred to 6×50 mL sterile polypropylene conical tubes. The Histopaque was overlayed with 15-25 mL of blood diluted 1:2 in Hank's Balanced Salts Solution (HBSS) (Gibco, Life Technology, Grand Island N.Y.). The tubes were then centrifuged at 1370 rpm for 30 minutes at 20° C., with no brake (400×g, GH 3.8A Rotor).
(§3) The interface (buffy coat) containing the PBMC was collected and placed in a new sterile 50 mL conical polypropylene centrifuge tube. The PBMC were mixed with an equal volume of HBSS (about 20 mL from the interface and about 20 mL of HBSS), and then centrifuged at 1090 rpm, 10 min, 20° C., with brake (270×g, GH 3.8A Rotor). After completing centrifugation, the cells were resuspended in 2-3 mL ACK Red blood cell lysis buffer (ammonium chloride potassium solution, Gibco, Life Technology) and incubated for 2-5 minutes at 20° C. […]
(§4) The number of viable cells was determined by counting with a Miltenyi FACS instrument (Miltenyi Biotec Inc., San Diego, Calif.) or by using a hemacytometer. […] Ten microliters of the diluted cells were then applied to the hemacytometer, and the number of viable PBMC were determined by microscopy. […]
(§5) IFN-alpha cytokine levels (pg/mL) were measured by ELISA (human IFN-α, pan specific, Mabtech, Cincinnati, Ohio). IFN-gamma and TNF-alpha levels (pg/mL) were measured by multiplex bead assay (magnetic beads, R & D Systems Minneapolis, Minn.) according to the manufacturer's instructions.
(§6) Specifically, the minimum effective concentration of each compound (micromolar) was determined as the lowest concentration of the compound that induced a measured cytokine response at a level ([…]) that was at least 2× greater than that observed with the negative control wells.

[2] = tested on: TNF-alpha induction in human peripheral blood mononuclear cells (PBMC); test: Cytokine induction in human cells (PBMC): TNF-alpha by multiplex bead assay
Protocol: as §1, §2, §3, §4, §5, §6

[3] = tested on: IFN-alpha induction in human peripheral blood mononuclear cells (PBMC); test: Cytokine induction in human cells (PBMC): IFN-alpha by ELISA
Protocol: as §1, §2, §3, §4, §5, §6

Structure (SMILES): CCCCCCCCCCCCCCCCCC(=O)NCCC[C@@H](COCC)n1cnc2c(N)nc3ccccc3c21 [Example 1, N-[(4S)-4-(4-aminoimidazo[4,5-c]quinolin-1-yl)-5-ethoxy-pentyl]octadecanamide]
- MEC to Induce Cytokine IFN-gamma [1]: 1.1 µM
- MEC to Induce Cytokine TNF-alpha [2]: ≤0.01 µM
- MEC to Induce Cytokine IFN-alpha [3]: ≤0.01 µM

Structure (SMILES): CCCCCCCCCCCCCC(=O)NCCC[C@@H](COCC)n1cnc2c(N)nc3ccccc3c21 [Example 2, N-[(4S)-4-(4-aminoimidazo[4,5-c]quinolin-1-yl)-5-ethoxy-pentyl]tetradecanamide]
- MEC to Induce Cytokine IFN-gamma [1]: 0.04 µM
- MEC to Induce Cytokine TNF-alpha [2]: ≤0.01 µM
- MEC to Induce Cytokine IFN-alpha [3]: ≤0.01 µM

Structure (SMILES): CCCCCCCCCC(=O)NCCC[C@@H](COCC)n1cnc2c(N)nc3ccccc3c21 [Example 3, N-[(4S)-4-(4-aminoimidazo[4,5-c]quinolin-1-yl)-5-ethoxy-pentyl]decanamide]
- MEC to Induce Cytokine IFN-gamma [1]: 0.04 µM
- MEC to Induce Cytokine TNF-alpha [2]: ≤0.01 µM
- MEC to Induce Cytokine IFN-alpha [3]: ≤0.01 µM

— patent publication US11306083B2, “Amide substituted imidazo[4,5-C]quinoline compounds with a branched chain linking group for use as an immune response modifier” (3M INNOVATIVE PROPERTIES COMPANY, priority 2017, dated 2022)
